In BindingDB's records for patent US12552811 (Abbisko Therapeutics Co., 2026):

Molecular target: Programmed cell death 1 ligand/protein 1 (Homo sapiens, UniProt Q15116+Q9NZQ7)
Assay: PD1-PDL1 HTRF Binding Activity Assay
Experimental: 1) Pre-diluted compound solution, 4 μL of Tag1-PD-L1 and 4 μL of Tag2-PD1 were added to each well of a 384-well plate:2) After the mixture was incubated at room temperature for 15 min, 5 μL of anti-Tag1-Eu3+ antibody and 5 μL of anti-Tag2-XL665 antibody were then added;3) After incubated for 2 hrs at room temperature or overnight at 4° C., plates were read on Envision of Pelkin Elmer; and readings at 665 nm and 620 nm were recorded, and the ratio of the two readings was taken as a reading for each well;4) The reading of each well after compound treatment was compared with the reading of DMSO treated wells to obtain the percent inhibition of the compound;5) IC50 values of compounds and positive compounds of the examples of the present invention were determined by non-linear regression analysis of percent inhibition at different compound concentrations.

Programmed cell death 1 ligand/protein 1, sequence (Q9NZQ7 whole entry): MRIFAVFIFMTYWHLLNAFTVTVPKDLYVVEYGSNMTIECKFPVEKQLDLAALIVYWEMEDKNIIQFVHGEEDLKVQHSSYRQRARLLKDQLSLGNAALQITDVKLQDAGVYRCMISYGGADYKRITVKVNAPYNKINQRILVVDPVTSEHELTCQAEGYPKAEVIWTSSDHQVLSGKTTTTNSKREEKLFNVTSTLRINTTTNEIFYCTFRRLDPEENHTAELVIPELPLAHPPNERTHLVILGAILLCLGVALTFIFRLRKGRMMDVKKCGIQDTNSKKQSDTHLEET
Programmed cell death 1 ligand/protein 1, sequence (Q15116 whole entry): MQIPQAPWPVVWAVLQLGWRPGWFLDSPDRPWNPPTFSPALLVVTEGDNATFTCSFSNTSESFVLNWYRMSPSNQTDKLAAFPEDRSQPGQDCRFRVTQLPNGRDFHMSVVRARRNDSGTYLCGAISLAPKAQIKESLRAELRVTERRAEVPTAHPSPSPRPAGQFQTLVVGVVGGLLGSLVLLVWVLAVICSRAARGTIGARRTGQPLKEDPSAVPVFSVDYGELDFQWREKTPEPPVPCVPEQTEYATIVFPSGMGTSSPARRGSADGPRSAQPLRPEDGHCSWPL

## CC(C)N1CCc2cc(C(=O)Nc3cccc(-c4cccc(NC(=O)c5cc(C6CC6)c(CN6CCCC[C@H]6C(=O)O)cn5)c4Cl)c3Cl)ncc2C1 [US12552811, Example 32]
  IC50: 0.661 nM
